Data reported in the NIST ThermoML archive (doi:10.1021/je800930v).

Columns and labels:
[1] = xn = mol fraction of the nth substance listed; settings: 101 kPa, Liquid
[2] = 101 kPa, Liquid

O=C(O)C1CC1 [cyclopropanecarboxylic acid] + CCO
[1]
Settings | mass density, 298.15 K [kg/m3] | mass density, 308.15 K [kg/m3] | mass density, 318.15 K [kg/m3] | mass density, 328.15 K [kg/m3] | viscosity, 298.15 K [mPa·s] | viscosity, 308.15 K [mPa·s] | viscosity, 318.15 K [mPa·s] | viscosity, 328.15 K [mPa·s]
x1 = 0.0787 | 820.26 | 811.57 | 802.61 | 793.34 | 1.272 | 1.043 | 0.865 | 0.723
x1 = 0.161 | 853.87 | 844.96 | 835.92 | 826.69 | 1.469 | 1.201 | 0.99 | 0.825
x1 = 0.2475 | 886.51 | 877.38 | 868.1 | 858.68 | 1.711 | 1.388 | 1.136 | 0.947
x1 = 0.3384 | 917.74 | 908.48 | 899.1 | 889.59 | 1.985 | 1.596 | 1.299 | 1.073
x1 = 0.4341 | 947.8 | 938.44 | 928.98 | 919.39 | 2.279 | 1.814 | 1.47 | 1.208
x1 = 0.535 | 976.75 | 967.28 | 957.74 | 948.09 | 2.562 | 2.029 | 1.636 | 1.342
x1 = 0.6415 | 1004.67 | 995.1 | 985.47 | 975.77 | 2.818 | 2.225 | 1.789 | 1.467
x1 = 0.7542 | 1031.56 | 1021.89 | 1012.17 | 1002.41 | 3.035 | 2.391 | 1.895 | 1.557
x1 = 0.8734 | 1057.73 | 1047.94 | 1038.12 | 1028.3 | 3.204 | 2.532 | 2.024 | 1.674
x1 = 1 | 1082.92 | 1072.97 | 1063.04 | 1053.12 | 3.306 | 2.603 | 2.102 | 1.739

CCCCO [butan-1-ol]
[2]
Settings | mass density [kg/m3] | viscosity [mPa·s]
298.15 K | 805.8 | 2.588
308.15 K | 798.08 | 1.991
318.15 K | 790.22 | 1.555
328.15 K | 782.17 | 1.228
338.15 K | 773.88 | 0.981

CCO [ethanol] + O=C(O)C1CC1
[1], x2 = 0
Settings | mass density [kg/m3] | viscosity [mPa·s]
298.15 K | 785.44 | 1.097
308.15 K | 776.78 | 0.908
318.15 K | 767.94 | 0.756
328.15 K | 758.92 | 0.634

CCCO [propan-1-ol] + O=C(O)C1CC1
[1], x2 = 0
Settings | mass density [kg/m3] | viscosity [mPa·s]
298.15 K | 799.6 | 1.955
308.15 K | 791.49 | 1.538
318.15 K | 783.22 | 1.224
328.15 K | 774.73 | 0.986
338.15 K | 765.98 | 0.801

CCCCO [butan-1-ol] + O=C(O)C1CC1
[1], x2 = 0
Settings | mass density [kg/m3] | viscosity [mPa·s]
298.15 K | 805.8 | 2.588
308.15 K | 798.08 | 1.991
318.15 K | 790.22 | 1.555
328.15 K | 782.17 | 1.228
338.15 K | 773.88 | 0.981

CCO [ethanol]
[2]
Settings | mass density [kg/m3] | viscosity [mPa·s]
298.15 K | 785.44 | 1.097
308.15 K | 776.78 | 0.908
318.15 K | 767.94 | 0.756
328.15 K | 758.92 | 0.634

CO [methanol] + O=C(O)C1CC1
[1], x2 = 0
Settings | mass density [kg/m3] | viscosity [mPa·s]
298.15 K | 787.01 | 0.556
308.15 K | 777.54 | 0.484
318.15 K | 767.98 | 0.424
328.15 K | 758.28 | 0.372

CO [methanol]
[2]
Settings | mass density [kg/m3] | viscosity [mPa·s]
298.15 K | 787.01 | 0.556
308.15 K | 777.54 | 0.484
318.15 K | 767.98 | 0.424
328.15 K | 758.28 | 0.372

O=C(O)C1CC1 [cyclopropanecarboxylic acid] + CO
[1]
Settings | mass density, 298.15 K [kg/m3] | mass density, 308.15 K [kg/m3] | mass density, 318.15 K [kg/m3] | mass density, 328.15 K [kg/m3] | viscosity, 298.15 K [mPa·s] | viscosity, 308.15 K [mPa·s] | viscosity, 318.15 K [mPa·s] | viscosity, 328.15 K [mPa·s]
x1 = 0.1 | 846.5 | 837.02 | 827.45 | 817.74 | 0.773 | 0.651 | 0.572 | 0.499
x1 = 0.2 | 895.02 | 885.53 | 875.84 | 866.23 | 1.052 | 0.886 | 0.753 | 0.645
x1 = 0.3 | 935.16 | 925.62 | 916 | 906.25 | 1.392 | 1.151 | 0.965 | 0.816
x1 = 0.3999 | 968.42 | 958.83 | 949.18 | 939.42 | 1.778 | 1.451 | 1.199 | 1
x1 = 0.4994 | 996.21 | 986.56 | 976.86 | 967.07 | 2.189 | 1.765 | 1.44 | 1.191
x1 = 0.5989 | 1019.49 | 1009.79 | 1000.06 | 990.24 | 2.557 | 2.029 | 1.641 | 1.349
x1 = 0.7001 | 1039.41 | 1029.65 | 1019.87 | 1010.04 | 2.887 | 2.227 | 1.825 | 1.494
x1 = 0.8001 | 1056.17 | 1046.35 | 1036.53 | 1026.65 | 3.139 | 2.449 | 1.963 | 1.604
x1 = 0.9 | 1070.57 | 1060.68 | 1050.81 | 1040.92 | 3.298 | 2.553 | 2.047 | 1.678
x1 = 1 | 1082.92 | 1072.97 | 1063.04 | 1053.12 | 3.306 | 2.603 | 2.102 | 1.739

CCCO [propan-1-ol]
[2]
Settings | mass density [kg/m3] | viscosity [mPa·s]
298.15 K | 799.6 | 1.955
308.15 K | 791.49 | 1.538
318.15 K | 783.22 | 1.224
328.15 K | 774.73 | 0.986
338.15 K | 765.98 | 0.801

O=C(O)C1CC1 [cyclopropanecarboxylic acid]
[2]
Settings | mass density [kg/m3] | viscosity [mPa·s]
298.15 K | 1082.92 | 3.306
308.15 K | 1072.97 | 2.603
318.15 K | 1063.04 | 2.102
328.15 K | 1053.12 | 1.739
338.15 K | 1043.2 | 1.459

O=C(O)C1CC1 [cyclopropanecarboxylic acid] + CCCO
[1]
Settings | mass density, 298.15 K [kg/m3] | mass density, 308.15 K [kg/m3] | mass density, 318.15 K [kg/m3] | mass density, 328.15 K [kg/m3] | mass density, 338.15 K [kg/m3] | viscosity, 298.15 K [mPa·s] | viscosity, 308.15 K [mPa·s] | viscosity, 318.15 K [mPa·s] | viscosity, 328.15 K [mPa·s] | viscosity, 338.15 K [mPa·s]
x1 = 0.1 | 832.12 | 823.73 | 815.19 | 806.46 | 797.48 | 2.118 | 1.667 | 1.325 | 1.068 | 0.87
x1 = 0.2 | 863.75 | 855.12 | 846.35 | 837.42 | 828.26 | 2.33 | 1.833 | 1.451 | 1.169 | 0.953
x1 = 0.3 | 894.25 | 885.41 | 876.46 | 867.36 | 858.07 | 2.568 | 2.002 | 1.583 | 1.276 | 1.041
x1 = 0.4138 | 927.62 | 918.58 | 909.45 | 900.17 | 890.75 | 2.82 | 2.19 | 1.733 | 1.396 | 1.141
x1 = 0.5001 | 952.13 | 942.95 | 933.7 | 924.34 | 914.85 | 2.988 | 2.317 | 1.834 | 1.481 | 1.211
x1 = 0.6 | 979.77 | 970.45 | 961.07 | 951.61 | 942.03 | 3.14 | 2.437 | 1.929 | 1.56 | 1.282
x1 = 0.7 | 1006.34 | 996.88 | 987.37 | 977.81 | 968.16 | 3.235 | 2.517 | 2.002 | 1.626 | 1.342
x1 = 0.8 | 1032.24 | 1022.8 | – | 1003.51 | 993.78 | 3.299 | 2.574 | 2.06 | 1.678 | 1.392
x1 = 0.9 | 1057.82 | 1048.15 | 1038.38 | 1028.6 | 1018.78 | 3.316 | 2.617 | 2.092 | 1.713 | 1.429
x1 = 1 | 1082.92 | 1072.97 | 1063.04 | 1053.12 | 1043.2 | 3.306 | 2.603 | 2.102 | 1.739 | 1.459

O=C(O)C1CC1 [cyclopropanecarboxylic acid] + CCCCO
[1]
Settings | mass density, 298.15 K [kg/m3] | mass density, 308.15 K [kg/m3] | mass density, 318.15 K [kg/m3] | mass density, 328.15 K [kg/m3] | mass density, 338.15 K [kg/m3] | viscosity, 298.15 K [mPa·s] | viscosity, 308.15 K [mPa·s] | viscosity, 318.15 K [mPa·s] | viscosity, 328.15 K [mPa·s] | viscosity, 338.15 K [mPa·s]
x1 = 0.1 | 831.84 | 823.84 | 815.72 | 807.43 | 798.92 | 2.672 | 2.064 | 1.615 | 1.289 | 1.031
x1 = 0.2 | 858.24 | 850.01 | 841.64 | 833.15 | 824.46 | 2.782 | 2.145 | 1.689 | 1.339 | 1.081
x1 = 0.3 | 884.97 | 876.51 | 867.95 | 859.26 | 850.39 | 2.936 | 2.26 | 1.779 | 1.416 | 1.145
x1 = 0.4 | 912.03 | 903.36 | 894.6 | 885.74 | 876.73 | 3.091 | 2.374 | 1.863 | 1.488 | 1.207
x1 = 0.5 | 939.3 | 930.44 | 921.51 | 912.47 | 903.33 | 3.217 | 2.475 | 1.944 | 1.556 | 1.266
x1 = 0.6 | 966.97 | 957.92 | 948.81 | 939.61 | 930.34 | 3.319 | 2.558 | 2.016 | 1.62 | 1.324
x1 = 0.6987 | 994.72 | 985.5 | 976.22 | 966.86 | 957.46 | 3.386 | 2.616 | 2.079 | 1.671 | 1.37
x1 = 0.7996 | 1023.6 | 1014.15 | 1004.68 | 995.17 | 985.6 | 3.401 | 2.634 | 2.11 | 1.708 | 1.41
x1 = 0.9 | 1053 | 1043.31 | 1033.63 | 1023.94 | 1014.21 | 3.362 | 2.628 | 2.109 | 1.723 | 1.432
x1 = 1 | 1082.92 | 1072.97 | 1063.04 | 1053.12 | 1043.2 | 3.306 | 2.603 | 2.102 | 1.739 | 1.459
